The values that follow come from patent US5629298A, “Adenosine as a positive inotrop in the compromised heart” (University of Massachusetts Medical Center, priority 1995, dated 1997).

For assay [1], the system named is ventricular myocyte membrane adenylyl cyclase. Nature of the assay: Adenylyl cyclase activity of ventricular myocyte membranes. In kind it is biochemical, rat. On the procedure: After a 3-4 hour incubation period, myocytes were harvested by placing the culture dishes on ice; aspirating and discarding the culture medium; scraping the attached cells into 1 ml of ice cold buffer (pH 7.4) containing 10 mM HEPES and 1 mM dithiothreitol (DTT); and transferring the mixture to a 40 ml centrifuge tube. The culture dishes were rinsed twice with buffer, and the rinses were added to the centrifuge tube. The myocytes were centrifuged at 45,000 x g for 45 minutes and the supernatant was discarded. The pellet was resuspended in 40 mM HEPES (pH 7.4) to yield 3.5-4 mg protein/ml and homogenized with a small clearance Dounce tissue grinder (8 strokes). The membranes were centrifugated as described above, resuspended (3-4 mg protein/ml) in 40 mM HEPES (pH 7.4), and assayed for adenylyl cyclase activity immediately or stored at -80° C. and assayed within 10 days.
The assay system used to measure adenylyl cyclase activity minimizes the formation of endogenous adenosine. The assay used was essentially as described by Romano et al. (supra). Myocyte membranes (15-25 μg protein) were incubated in 50 μl of a buffer containing 40 mM HEPES (pH 7.4), 5 mM MgCl2, 1 mM DTT, 5.5 mM KCl, 0.1 mM 2'-deoxy-cAMP (dcAMP), 0.1 mM 2'-deoxy ATP (dATP), 20 mM phosphoenolpyruvate, 2 units pyruvate kinase, 0.25 units adenosine deaminase, 1 mM ascorbic acid, 100 mM NaCl, 0.1 mM ethyleneglycol-bis (β-aminoethylether) N,N,N',N',-tetroaceticacid (EGTA), 10 μM guanosine 5'-triphosphate (GTP), and ~2×10^6 counts/minutes of [α-^32 P]dATP for 20 minutes at 30° C. The reaction was stopped by adding 40 μl of a solution containing 2% sodium dodecyl sulfate (SDS), 45 mM ATP, 1.3 mM cAMP, and [^3 H]dcAMP (~4000 count/min) and by boiling for 2 minutes.

For a further assay, the system named is rat heart. Nature of the assay: Isolated perfused heart, normoperfused or hypoperfused (mechanically depressed): LVP, +dP/dtmax, -dP/dtmax. As to conditions: for activation at 0.01 µM: Rattus norvegicus, 5 seconds; for activation at 0.01 µM / effect on the contractile variables (LVP, +dP/dtmax, -dP/dtmax): normoperfusion; for activation at 0.01 µM / increase in +dP/dtmax / increase in -dP/dtmax / increase in LVP: isoproterenol 10^-8 M; for increase in +dP/dtmax / increase in -dP/dtmax / increase in LVP: hypoperfusion (mechanically depressed heart); for increase in +dP/dtmax / increase in -dP/dtmax / increase in LVP / effect on the contractile variables (LVP, +dP/dtmax, -dP/dtmax): adenosine 2×10^-5 M, DPCPX 2×10^-7 M; for effect on the contractile variables (LVP, +dP/dtmax, -dP/dtmax): CGS-21680 2×10^-6 M. As for the experimental part:
Male Sprague-Dawley rats (500-550 g) were anesthetized with pentobarbital (40 mg/kg, i.p.) and treated with heparin (500 units, i.p.) for 15 minutes. Hearts were excised, rinsed in iced physiological saline ("PS") and perfused with PS (37° C.) via an aortic cannula at a constant rate of 18-20 ml/min. Perfusion pressure ranged from 50 to 60 mm Hg. The PS contained: NaCl, 118 mM; KCl, 4.7 mM; CaCl2, 2.5 mM; NaHCO3, 25 mM; KH2 PO4, 1.2 mM; MgSO4 1.2 mM; glucose 10 mM; and pyruvate 1.8 mM. The pH was maintained at 7.4 by gassing the PS with a 95% O2 /5% CO2 gas mixture. Platinum wire electrodes were inserted into the right atrium to allow pacing of the heart (300 contractions per minute) throughout the perfusion period. Developed left ventricular pressure (LVP) was measured with a saline-filled balloon inserted into the lumen of the left ventricle via the left atrium and attached by a polyethylene cannula to a pressure transducer. The pressure signal was electronically differentiated to obtain the maximum rates of left ventricular pressure development (+dP/dtmax) and relaxation (-dP/dtmax). Balloon volume was varied until the maximal obtainable dP/dt was attained. This optimal preload, ranging from 5 to 10 mm Hg, was maintained constant, permitting isovolumic contraction of the heart. Aortic perfusion pressure was monitored with another pressure transducer. All the LVP, +dP/dtmax, -dP/dtmax and aortic perfusion data were continually recorded on a multichannel polygraph. At the end of the experiment, the wet heart weights were determined; they ranged from 1.4 to 1.8 g.
After instrumentation, the hearts were normoperfused at 18-20 ml/min for 20 minutes, resulting in an aortic perfusion pressure of 50-60 mm Hg. Isoproterenol, adenosine, CGS-21680, DPCPX, atenolol, or a combination of these agents was administered for 1 to 2 minutes, via the aortic perfusion cannula, at 1/100th the perfusion flow rate, to achieve the stated PS concentrations. Isoproterenol was administered for only 5 seconds. To cause mechanical depression of the perfused hearts, the perfusion flow was lowered 5-6 ml/min. The resulting aortic perfusion pressure decreased to 20-30 mm Hg. The various agents either alone or in combination were administered via the PS to the hypoperfused hearts at 1/100th the perfusion flow rate, at the concentrations indicated.

The structures appear in SMILES notation. Like-named read-outs stand apart in the source and are kept apart here.

On to `CC(C)NCC(O)c1ccc(O)c(O)c1` (stereo not drawn) [ISO, isoproterenol], for which the “increase in adenylyl cyclase activity” value in assay [1] (ISO at 0.1 μM in the presence of 1 μM PIA) is given as 23%; in assay [1] (ISO at 0.1 μM, in the absence of PIA), 88%. For the same compound, the “ISO-induced increase in adenylyl cyclase activity” value in assay [1] (ISO at 0.1 μM, with PIA and DPCPX at 0.1 μM) came to 70%. In addition, the activation at 0.01 µM came to 167% in the assay with rat heart (read-out: increase in +dP/dtmax), 216% in the assay on rat heart (read-out: increase in -dP/dtmax) and 119% with rat heart (read-out: increase in LVP). Besides, the “increase in +dP/dtmax” value with rat heart came out at 114%. Moreover, the “increase in -dP/dtmax” value in the assay with rat heart is listed as 225%. Moreover, the “increase in LVP” value in the assay with rat heart turned out to be 171%.

Turning to `CCNC(=O)[C@H]1O[C@@H](n2cnc3c(N)nc(NCCc4ccc(CCC(=O)O)cc4)nc32)[C@H](O)[C@@H]1O` [CGS-21680, 2-p-(2-carboxy-ethyl)phenethyl-amino-5'-N-ethylcarboxamido-adenosine], the “increase in cyclase activity” value in assay [1] (CGS-21680 in the presence of 0.1 μM DPCPX) was 49%. Also, the EC50 (commonly the concentration that produces a half-maximal response) in assay [1] (in the presence of 0.1 μM DPCPX, read-out: EC50 for increase of adenylyl cyclase) stood at 260 ± 80 nM. In addition, the adenylyl cyclase response entry in assay [1] (no DPCPX, activating at 1-10 μM, reducing this activation at 0.1-1 mM) is given as “biphasic response”. In the assay on rat heart, the “effect on the contractile variables (LVP, +dP/dtmax, -dP/dtmax)” value is “without affect”.

As for `Nc1ncnc2c1ncn2[C@@H]1O[C@H](CO)[C@@H](O)[C@H]1O` [adenosine], in assay [1] (adenosine at 0 to 1 mM, absence or presence of 1 μM DPCPX, ventricular myocyte membranes), the “adenylyl cyclase activity above basal levels” value is on record as “did not increase”. Also, in the assay on rat heart, the “increase in +dP/dtmax” value was determined as 25%; the “increase in -dP/dtmax” value was 33%; the “increase in LVP” value is on record as 26%; the “effect on the contractile variables (LVP, +dP/dtmax, -dP/dtmax)” value was “did not affect”.
